One test concerns the target T1, KRAS G12D protein (Homo sapiens, UniProt P01116, G12D).
T1 construct: host or cells: AsPC-1
As to the kind of experiment: KRAS degradation activity by Cell ELISA in AsPC-1 (Test Example 1). Type of test: cell-based. The note with it: AsPC-1 cells, cultured overnight with compound, corrected with β-actin, read-out: DC50 (50% degradation concentration of the amounts of KRAS). In a few lines: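 AsPC-1 cells (KRAS G12D), 2.0×10^4/well, treated overnight with compound (10 points, 10 μM–0.3 nM final) in RPMI 1640/10% FBS. Fixed cells immunostained for G12D-specific Ras and β-actin, with near-IR fluorescence read. Ras/actin ratio scaled DMSO = 0% and actin-only = 100%, and DC50 fitted by Sigmoid-Emax regression.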
In general terms: An ELISA detects its analyte on a solid surface through an enzyme-linked reagent.

Test [1] deals with phosphorylation of threonine 202 (Thr202) and tyrosine 204 (Tyr204) of ERK. The experiment in a line: ERK phosphorylation inhibitory effect by Cell ELISA in AsPC-1 (Test Example 2). Type of test: cell-based, human. Conditions: Homo sapiens, ASPC1, AsPC-1 cells, cultured overnight with compound; 1 μM trametinib taken as 0%. Put shortly:
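AsPC-1 cells (G12D KRAS) treated overnight with compound (10 points, 10 μM to 0.3 nM final), then glyoxal-fixed and immunostained for phospho-ERK with a fluorescent secondary read at 800 nm. IC50 by Sigmoid-Emax regression, with DMSO as 100% and 1 μM trametinib as 0%.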

Broadly, the IC50 is the point on the concentration scale where inhibition reaches its midpoint.

T1 sequence (P01116 1-188 isoform P01116-2 G12D): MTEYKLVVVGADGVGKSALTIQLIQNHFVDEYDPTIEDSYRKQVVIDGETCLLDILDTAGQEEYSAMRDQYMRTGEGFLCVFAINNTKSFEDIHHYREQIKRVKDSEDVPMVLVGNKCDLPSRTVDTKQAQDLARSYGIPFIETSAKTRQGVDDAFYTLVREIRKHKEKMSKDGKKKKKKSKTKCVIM

As to `CCn1nccc1-c1ccc([C@H](CO)NC(=O)[C@@H]2C[C@@H](O)CN2C(=O)[C@H](C(C)C)n2cc(-c3ccc(COc4c(-c5c(C)c(F)cc6[nH]ncc56)c(C5CC5)cc5c(N(C)[C@H]6CCNC6)nc(OC[C@H](C)OC)nc45)cc3)nn2)cc1` (atropisomer, axis not shown; (M)) [Example 13], at KRAS G12D protein, the DC50 was found to be 10 nM. Further, the half-maximal inhibitory concentration (IC50) in test [1] worked out at 8 nM.
Regarding `CO[C@@H](C)COc1cc(N(C)[C@H]2CCNC2)c2cc(C3CC3)c(-c3c(C)c(F)cc4[nH]ncc34)c(OCc3ccc(-c4cn([C@H](C(=O)N5C[C@H](O)C[C@H]5C(=O)N[C@@H](CO)c5ccc(-c6scnc6C)cc5)C(C)C)nn4)cc3)c2n1` (atropisomer, axis not shown; (M)) [Example 11, (4R)-1-[(2S)-2-{4-[4-({[(7M)-6-cyclopropyl-7-(6-fluoro-5-methyl-1H-indazol-4-yl)-2-[(2S)-2-methoxypropoxy]-4-{methyl[(3S)-pyrrolidin-3-yl]amino}quinazolin-8-yl]oxy}methyl)phenyl]-1H-1,2,3-triazol-1-yl}-3-methylbutanoyl]-4-hydroxy-N-{(1R)-2-hydroxy-1-[4-(4-methyl-1,3-thiazol-5-yl)phenyl]ethyl}-L-prolinamide], the DC50 on KRAS G12D protein is 10 nM. Moreover, in test [1], the half-inhibitory concentration (IC50) was found to be 24 nM.
`Cc1ncsc1-c1ccc([C@H](CO)NC(=O)[C@@H]2C[C@@H](O)CN2C(=O)[C@H](C(C)C)n2cc(-c3ccc(COc4c(-c5c(C)c(F)cc6[nH]ncc56)c(C5CC5)cc5c(N(C)[C@H]6CCNC6)nc(OC[C@H]6CCCO6)nc45)cc3)nn2)cc1` (atropisomer, axis not shown; (M)) [Example 9, (4R)-1-[(2S)-2-{4-[4-({[(7M) 6-cyclopropyl-7-(6-fluoro-5-methyl-1H-indazol-4-yl)-4-{methyl[(3S)-pyrrolidin-3-yl]amino}-2-{[(2R)-oxolan-2-yl]methoxy}quinazolin-8-yl}oxy}methyl)phenyl]-1H-1,2,3-triazol-1-yl}-3-methylbutanoyl]-4-hydroxy-N-{(1R)-2-hydroxy-1-[4-(4-methyl-1,3-thiazol-5-yl)phenyl]ethyl}-L-prolinamide]: the DC50 on KRAS G12D protein stood at 15 nM. Moreover, the IC50 in test [1] is 11 nM.
As to `CCN(c1nc(OC[C@H](C)OC)nc2c(OCc3ccc(-c4cn([C@H](C(=O)N5C[C@H](O)C[C@H]5C(=O)N[C@@H](CO)c5ccc(-c6scnc6C)cc5)C(C)C)nn4)cc3)c(-c3c(C)c(F)cc4[nH]ncc34)c(C3CC3)cc12)[C@H]1CCNC1` (atropisomer, axis not shown; (M)) [Example 50, (4R)-1-[(2S)-2-(4-{4-[({(7M)-6-cyclopropyl-4-{ethyl[(3S)-pyrrolidin-3-yl]amino}-7-(6-fluoro-5-methyl-1H-indazol-4-yl)-2-[(2S)-2-methoxypropoxy]quinazolin-8-yl}oxy)methyl)phenyl}-1H-1,2,3-triazol-1-yl)-3-methylbutanoyl]-4-hydroxy-N-{(1R)-2-hydroxy-1-[4-(4-methyl-1,3-thiazol-5-yl)phenyl]ethyl}-L-prolinamide], the DC50 at KRAS G12D protein was found to be 18 nM. In test [1], the IC50 was 8 nM.
With `CO[C@@H](C)COc1nc(N(C)[C@@H]2CCNC2)c2cc(C3CC3)c(-c3c(C)c(F)cc4[nH]ncc34)c(OCc3ccc(-c4cn([C@H](C(=O)N5C[C@H](O)C[C@H]5C(=O)N[C@@H](CO)c5ccc(-c6scnc6C)cc5)C(C)C)nn4)cc3)c2n1` (atropisomer, axis not shown; (M)) [Example 53], the DC50 on KRAS G12D protein came to 7 nM. Moreover, the IC50 in test [1] came to 9 nM.

The values are drawn from patent publication US20250206751A1, “HETEROCYCLIC COMPOUND FOR INDUCING DEGRADATION OF G12D MUTANT KRAS PROTEIN” (Astellas Pharma Inc., priority 2022, published 2025).
